#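 Briefly, cells in 96-well plates were exposed to five compound concentrations for 48 h, and endpoints were estimated by linear interpolation. GI50 = concentration required for 50% inhibition of growth. TGI denotes the concentration required for complete inhibition of growth.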
# How the values were obtained:
# Assay in all cases: NCI tumour cell line growth inhibition, 48 h
# [1] = test system: HCT-15 colon
# [2] = test system: HOP-62 NSCLC
# [3] = test system: IGROV1 ovarian
# [4] = test system: K-562 leukemia
# [5] = test system: M14 melanoma
# [6] = test system: MDA-MB-435
# [7] = test system: NCI/ADR-RES ovarian
# [8] = test system: SF-295 CNS
# [9] = test system: SK-MEL-2 melanoma
# [10] = test system: SR leukemia
Structure (SMILES),GI50 [1] [µM],TGI [1] [µM],GI50 [2] [µM],TGI [2] [µM],GI50 [3] [µM],TGI [3] [µM],GI50 [4] [µM],TGI [4] [µM],GI50 [5] [µM],TGI [5] [µM],GI50 [6] [µM],TGI [6] [µM],GI50 [7] [µM],TGI [7] [µM],GI50 [8] [µM],TGI [8] [µM],GI50 [9] [µM],TGI [9] [µM],GI50 [10] [µM],TGI [10] [µM]
CCN(CC)CCCCCCNc1cc(OC)cc2cccnc12,1.9,3.78,2.06,5.11,2.27,4.86,1.74,3.58,1.93,3.74,1.84,3.63,7.16,27.3,11.4,26.5,17.6,32.6,1.99,4.1
COC1=C(OC)C(=O)C(SC/C=C(\C)CCCC(C)CCCC(C)CCCC(C)C)=CC1=O (stereo not given),1.38,> 100,3.05,> 100,2.94,> 29.2,0.678,> 100,0.743,> 100,0.845,> 38.7,0.784,> 46.7,0.734,2.88,0.802,4.24,1.09,> 100
COC1C(N)C(OC2C(Oc3cccc4c(O)c5c(=O)oc6ccc(C)c7c(=O)oc(c34)c5c67)OC(C)C(O)C2(C)O)OC(C)C1O (stereo not given),,7.55,,0.258,,0.132,,1.56,,0.75,,0.219,,12.1,,1.21,,0.0378,,8.12
c1ccc2c(c1)Nc1ccncc1S2,28,> 100,19.5,> 100,22.8,99.6,29.4,> 100,32.4,> 100,23.2,> 100,21.4,> 100,14.7,68.8,13.6,36.7,13.4,50.3
O=C(CC1(O)C(=O)N(Cc2ccccc2)c2ccccc21)c1ccc(C(=O)NCC2CCC3(CC2)OOC2(CCCCC2)OO3)cc1 (stereo not given),1.76,4.76,0.273,0.86,0.408,1.62,1.72,4.83,2.48,7.26,0.875,2.45,1.18,3.47,1.3,5.11,2.28,5.24,0.344,1.66
COC(=O)[C@H]1CCCN1C(=O)[C@H]1CCCN1C(=O)[C@@H](Cc1c[nH]c2ccccc12)NC(=S)Nc1cc(C(F)(F)F)cc(C(F)(F)F)c1,1.66,3.13,2.01,3.83,1.88,4.16,2.4,5.52,2.04,4.19,1.8,3.58,3.45,12.5,1.67,3.17,1.95,3.55,2.53,5.65
